Measured values: patent publication US9540323B2 (BRISTOL-MYERS SQUIBB COMPANY, priority 2012, dated 2017)

Experiments:
[1] = biological target: cloned human P2Y1 receptors (Homo sapiens (Human), UniProt P47900); experiment: Binding Assay B - Scintillation Proximity Assay (SPA) for P2Y1 binding, [33P] 2MeS-ADP; conditions: SPA, 0.3 nM [33P] 2MeS-ADP, Cheng-Prusoff; read-out: P2Y1 Ki (nM) using binding assay B
Method: Binding Assay B—Scintillation Proximity Assay (SPA) for P2Y1 Binding
A SPA membrane binding assay was used to identify inhibitors of [^33P] […] Reactions were allowed to proceed to completion at room temperature for 1 hour followed by centrifugation of the plate for 5 min. About 40 μL of the aqueous solution was aspirated. Plates were sealed and the [^33P]

[2] = tested on: human platelet rich plasma (PRP); experiment: ADP induced platelet aggregation assay; conditions: Homo sapiens, Platelet, 5 min, read-out: PA IC50 (μM) @ 10 μM ADP, human PRP, 10 μM ADP, AUC at 5 minute

Sequence of cloned human P2Y1 receptors (P47900 whole entry): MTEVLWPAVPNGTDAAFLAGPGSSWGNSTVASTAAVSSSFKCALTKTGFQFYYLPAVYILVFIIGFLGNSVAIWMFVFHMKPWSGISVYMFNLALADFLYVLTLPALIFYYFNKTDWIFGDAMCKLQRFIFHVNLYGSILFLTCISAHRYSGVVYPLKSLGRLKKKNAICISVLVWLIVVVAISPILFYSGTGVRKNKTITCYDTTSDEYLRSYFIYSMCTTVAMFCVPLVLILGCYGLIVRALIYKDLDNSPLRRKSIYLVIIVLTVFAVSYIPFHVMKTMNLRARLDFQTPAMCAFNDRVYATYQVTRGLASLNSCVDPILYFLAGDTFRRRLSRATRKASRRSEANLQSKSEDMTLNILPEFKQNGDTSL

SMILES	Ki [1]	IC50 [2]
CC1(C)CN(c2ccccc2NC(=O)Nc2csc(Cl)n2)c2c(O)cc(F)c(Br)c21 [Example 68, 1-(2-(4-Bromo-5-fluoro-7-hydroxy-3,3-dimethylindolin-1-yl)phenyl)-3-(2-chlorothiazol-4-yl)urea]	7.5 nM	0.6 µM
CC1(C)CN(c2ccccc2NC(=O)Nc2ccc(OC(F)(F)F)cc2)c2c(O)c(F)cc(Br)c21 [Example 69, 1-(2-(4-Bromo-6-fluoro-7-hydroxy-3,3-dimethylindolin-1-yl)phenyl)-3-(4-(trifluoromethoxy)phenyl)urea]	18.1 nM	0.83 µM
CC1(C)CN(c2ccccc2NC(=O)Nc2nc3ccc(Cl)cc3s2)c2c(O)cc(F)c(Br)c21 [Example 70, 1-(2-(4-Bromo-5-fluoro-7-hydroxy-3,3-dimethylindolin-1-yl)phenyl)-3-(6-chlorobenzo[d]thiazol-2-yl)urea]	31.3 nM	0.78 µM
CCC1(CC)CN(c2ccccc2NC(=O)Nc2ccc(OC(F)(F)F)cc2)c2c(O)ccc(C)c21 [Example 71, 1-(2-(3,3-Diethyl-7-hydroxy-4-methylindolin-1-yl)phenyl)-3-(4-(trifluoromethoxy)phenyl)urea]	6.8 nM	0.5 µM
CC(C)(C)Sc1ccc(O)c2c1C(C)(C)CN2c1ccccc1NC(=O)Nc1ccc(OC(F)(F)F)cc1 [Example 72, 1-(2-(4-(tert-Butylthio)-7-hydroxy-3,3-dimethylindolin-1-yl)phenyl)-3-(4-(trifluoromethoxy)phenyl)urea]	32.2 nM	1.05 µM
CCC1(CC)CN(c2ccccc2NC(=O)Nc2ccc(OC(F)(F)F)cc2)c2c(O)ccc(C=O)c21 [Example 73, 1-(2-(3,3-Diethyl-4-formyl-7-hydroxyindolin-1-yl)phenyl)-3-(4-(trifluoromethoxy)phenyl)urea]	4.5 nM	0.9 µM
CCOC(=O)C1(C)CN(c2ccccc2NC(=O)Nc2ccc(OC(F)(F)F)cc2)c2c(O)ccc(Cl)c21 (stereo not shown) [Example 74, Ethyl 4-chloro-7-hydroxy-3-methyl-1-(2-(3-(4-(trifluoromethoxy)phenyl)ureido)phenyl)indoline-3-carboxylate]	19.8 nM	3.11 µM
CCOC(=O)C1(C)CN(c2ccccc2NC(=O)Nc2csc(Cl)n2)c2c(O)ccc(Cl)c21 (stereo not shown) [Example 75, Ethyl 4-chloro-1-(2-(3-(2-chlorothiazol-4-yl)ureido)phenyl)-7-hydroxy-3-methylindoline-3-carboxylate]	7.1 nM	0.56 µM
CCOC(=O)C1(C)CN(c2ccccc2NC(=O)Nc2nc3ccc(F)cc3s2)c2c(O)ccc(Cl)c21 (stereo not shown) [Example 76, Ethyl 4-chloro-1-(2-(3-(6-fluorobenzo[d]thiazol-2-yl)ureido)phenyl)-7-hydroxy-3-methylindoline-3-carboxylate]	11.5 nM	0.4 µM
CCOC(=O)C1(C)CN(c2ccccc2NC(=O)Nc2nc3ccc(Cl)nc3s2)c2c(O)ccc(Cl)c21 (stereo not shown) [Example 77, Ethyl 4-chloro-1-(2-(3-(5-chlorothiazolo[5,4-b]pyridin-2-yl)ureido)phenyl)-7-hydroxy-3-methylindoline-3-carboxylate]	12.9 nM	0.61 µM
CC1(CC(F)(F)F)CN(c2ccccc2NC(=O)Nc2ccc(OC(F)(F)F)cc2)c2c(O)ccc(Cl)c21 (stereo not shown) [Example 78, 1-(2-(4-Chloro-7-hydroxy-3-methyl-3-(2,2,2-trifluoroethyl)indolin-1-yl)phenyl)-3-(4-(trifluoromethoxy)phenyl)urea]	7.7 nM	2.92 µM
CC1(C)CN(c2ccccc2NC(=O)Nc2ccc(OC(F)(F)F)cc2)c2c(O)c(F)cc(CC(F)(F)F)c21 [Example 79, 1-(2-(6-Fluoro-7-hydroxy-3,3-dimethyl-4-(2,2,2-trifluoroethyl)indolin-1-yl)phenyl)-3-(4-(trifluoromethoxy)phenyl)urea]	9.7 nM	0.83 µM
COC(=O)c1ccc(O)c2c1C(C)(C)CN2c1ccccc1NC(=O)Nc1ccc(OC(F)(F)F)cc1 [Example 80, Methyl 7-hydroxy-3,3-dimethyl-1-(2-(3-(4-(trifluoromethoxy)phenyl)ureido)phenyl)indoline-4-carboxylate]	9 nM	0.84 µM
CCOC(=O)c1ccc(O)c2c1C(C)(C)CN2c1ccccc1NC(=O)Nc1ccc(OC(F)(F)F)cc1 [Example 81, Ethyl 7-hydroxy-3,3-dimethyl-1-(2-(3-(4-(trifluoromethoxy)-phenyl)-ureido)phenyl)indoline-4-carboxylate]	8.6 nM	0.91 µM
CC1(C)CN(c2ccccc2NC(=O)Nc2ccc(OC(F)(F)F)cc2)c2c(O)ccc(-c3nc4ccccc4o3)c21 [Example 82, 1-(2-(4-(Benzo[d]oxazol-2-yl)-7-hydroxy-3,3-dimethylindolin-1-yl)phenyl)-3-(4-(trifluoromethoxy)phenyl)urea]	15.8 nM	0.99 µM
CC1(C)CN(c2ccccc2NC(=O)Nc2ccc(OC(F)(F)F)cc2)c2c(O)ccc(-c3nc4ccccc4s3)c21 [Example 83]	14.7 nM	0.86 µM
CC1(C)CN(c2ccccc2NC(=O)Nc2ccc(OC(F)(F)F)cc2)c2c(O)ccc(-c3nc4cc(Cl)ccc4o3)c21 [Example 84, 1-(2-(4-(5-Chlorobenzo[d]oxazol-2-yl)-7-hydroxy-3,3-dimethylindolin-1-yl)phenyl)-3-(4-(trifluoromethoxy)phenyl)urea]	16.7 nM	0.58 µM
CC1(C)CN(c2ccccc2NC(=O)Nc2ccc(OC(F)(F)F)cc2)c2c(O)ccc(-c3nc4cc(Cl)ccc4s3)c21 [Example 85, 1-(2-(4-(5-Chlorobenzo[d]thiazol-2-yl)-7-hydroxy-3,3-dimethylindolin-1-yl)phenyl)-3-(4-(trifluoromethoxy)phenyl)urea]	23.5 nM	0.38 µM
Cc1nnc(-c2ccc(O)c3c2C(C)(C)CN3c2ccccc2NC(=O)Nc2ccc(OC(F)(F)F)cc2)o1 [Example 86, 1-(2-(7-Hydroxy-3,3-dimethyl-4-(5-methyl-1,3,4-oxadiazol-2-yl)indolin-1-yl)phenyl)-3-(4-(trifluoromethoxy)phenyl)urea]	22.2 nM	5 µM
CC1(C)CN(c2ccccc2NC(=O)Nc2ccc(OC(F)(F)F)cc2)c2c(O)ccc(-c3nc4cc(C(F)(F)F)ccc4s3)c21 [Example 87]	42.9 nM	0.27 µM
Cn1c(-c2ccc(O)c3c2C(C)(C)CN3c2ccccc2NC(=O)Nc2ccc(OC(F)(F)F)cc2)nc2ccccc21 [Example 88, 1-(2-(7-Hydroxy-3,3-dimethyl-4-(1-methyl-1H-benzo[d]imidazol-2-yl)indolin-1-yl)phenyl)-3-(4-(trifluoromethoxy)phenyl)urea]	39.7 nM	4.15 µM
CC1(C)CN(c2ccccc2NC(=O)Nc2ccc(OC(F)(F)F)cc2)c2c(O)ccc(-c3nc4cccnc4o3)c21 [Example 89, 1-(2-(7-Hydroxy-3,3-dimethyl-4-(oxazolo[5,4-b]pyridin-2-yl)indolin-1-yl)phenyl)-3-(4-(trifluoromethoxy)phenyl)urea]	12.3 nM	0.99 µM
Cc1cccc2oc(-c3ccc(O)c4c3C(C)(C)CN4c3ccccc3NC(=O)Nc3ccc(OC(F)(F)F)cc3)nc12 [Example 90, 1-(2-(7-Hydroxy-3,3-dimethyl-4-(4-methylbenzo[d]oxazol-2-yl)indolin-1-yl)phenyl)-3-(4-(trifluoromethoxy)phenyl)urea]	56.7 nM	0.43 µM
CC1(C)CN(c2ccccc2NC(=O)Nc2ccc(OC(F)(F)F)cc2)c2c(O)ccc(-c3nc4ccc(Cl)cc4o3)c21 [Example 91, 1-(2-(4-(6-Chlorobenzo[d]oxazol-2-yl)-7-hydroxy-3,3-dimethylindolin-1-yl)phenyl)-3-(4-(trifluoromethoxy)phenyl)urea]	65.1 nM	0.33 µM
CC1(C)CN(c2ccccc2NC(=O)Nc2ccc(OC(F)(F)F)cc2)c2c(O)ccc(-c3nc4ccc(F)cc4o3)c21 [Example 92, 1-(2-(4-(6-Fluorobenzo[d]oxazol-2-yl)-7-hydroxy-3,3-dimethylindolin-1-yl)phenyl)-3-(4-(trifluoromethoxy)phenyl)urea]	36.6 nM	0.2 µM
Cc1cccc2nc(-c3ccc(O)c4c3C(C)(C)CN4c3ccccc3NC(=O)Nc3ccc(OC(F)(F)F)cc3)oc12 [Example 93, 1-(2-(7-Hydroxy-3,3-dimethyl-4-(7-methylbenzo[d]oxazol-2-yl)indolin-1-yl)phenyl)-3-(4-(trifluoromethoxy)phenyl)urea]	52 nM	0.8 µM
COc1ccc2nc(-c3ccc(O)c4c3C(C)(C)CN4c3ccccc3NC(=O)Nc3ccc(OC(F)(F)F)cc3)oc2c1 [Example 94, 1-(2-(7-Hydroxy-4-(6-methoxybenzo[d]oxazol-2-yl)-3,3-dimethylindolin-1-yl)phenyl)-3-(4-(trifluoromethoxy)phenyl)urea]	39.5 nM	0.48 µM
Cc1ccc2nc(-c3ccc(O)c4c3C(C)(C)CN4c3ccccc3NC(=O)Nc3ccc(OC(F)(F)F)cc3)oc2c1 [Example 95, 1-(2-(7-Hydroxy-3,3-dimethyl-4-(6-methylbenzo[d]oxazol-2-yl)indolin-1-yl)phenyl)-3-(4-(trifluoromethoxy)phenyl)-urea]	33.3 nM	0.46 µM
CC1(C)CN(c2ccccc2NC(=O)Nc2ccc(OC(F)(F)F)cc2)c2c(O)ccc(-c3nc4cnccc4o3)c21 [Example 96, 1-(2-(7-Hydroxy-3,3-dimethyl-4-(oxazolo[4,5-c]pyridin-2-yl)indolin-1-yl)phenyl)-3-(4-(trifluoromethoxy)phenyl)urea]	22.2 nM	2.99 µM
